Measured values as given in publication PMC3858179 (Journal of medicinal chemistry, 2008).
pEC50, pIC50: −log10 of the molar value.

How the values were obtained:
[1] = molecular target: E. coli TS (Escherichia coli, UniProt P0A884); experiment: Inhibition of isolated E. coli TS; type: biochemical; settings: for % inhibition TS E. coli (number in parenthesis): at the concentration given
[2] = molecular target: T1, T. gondii DHFR (Toxoplasma gondii, UniProt Q07422); type: biochemical; settings: 20 compounds jointly assayed, by both protocols (Table 1 and Table 2 conditions)
T1 sequence (Q07422 1-610): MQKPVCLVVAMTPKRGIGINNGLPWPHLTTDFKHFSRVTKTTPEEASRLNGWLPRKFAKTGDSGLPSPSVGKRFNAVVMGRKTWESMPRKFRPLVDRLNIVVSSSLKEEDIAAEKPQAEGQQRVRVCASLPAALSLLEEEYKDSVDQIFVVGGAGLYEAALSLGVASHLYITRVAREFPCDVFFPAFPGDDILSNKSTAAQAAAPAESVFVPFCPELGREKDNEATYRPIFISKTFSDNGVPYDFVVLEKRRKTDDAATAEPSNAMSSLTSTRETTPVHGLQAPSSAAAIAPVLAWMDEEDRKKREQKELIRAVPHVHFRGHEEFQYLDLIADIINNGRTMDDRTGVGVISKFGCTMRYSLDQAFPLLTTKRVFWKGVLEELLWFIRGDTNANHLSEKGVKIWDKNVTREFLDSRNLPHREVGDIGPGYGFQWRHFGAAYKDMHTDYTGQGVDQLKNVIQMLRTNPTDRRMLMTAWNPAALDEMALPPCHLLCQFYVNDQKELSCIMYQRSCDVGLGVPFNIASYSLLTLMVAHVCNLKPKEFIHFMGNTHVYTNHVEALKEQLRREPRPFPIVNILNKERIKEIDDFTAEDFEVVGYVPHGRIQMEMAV

[3] = tested on: human CCRF-CEM leukemia cells; settings: read-out: EC50 growth of human CCRF-CEM leukemia cells in culture; cited from earlier work

Chain of E. coli TS (P0A884 whole entry): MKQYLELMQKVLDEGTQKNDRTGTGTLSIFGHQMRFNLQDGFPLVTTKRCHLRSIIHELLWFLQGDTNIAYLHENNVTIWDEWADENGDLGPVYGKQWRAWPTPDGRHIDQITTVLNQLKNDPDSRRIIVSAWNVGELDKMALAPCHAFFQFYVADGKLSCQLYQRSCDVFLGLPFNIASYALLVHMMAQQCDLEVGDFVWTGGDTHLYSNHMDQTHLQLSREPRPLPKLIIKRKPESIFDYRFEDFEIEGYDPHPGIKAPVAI

Row | SMILES | pIC50 [1] | % inhibition TS E. coli (number in parenthesis) [1] [%] | potency rank against T. gondii DHFR, in words [2] | pEC50 [3]
1 | CCCc1c(Sc2c(Cl)cccc2Cl)[nH]c2nc(N)nc(N)c12 [Compound 11, 2,4-Diamino-5-propyl-6-(2′,6′-dichlorophenylsulfanyl)-7H-pyrrolo[2,3-d]pyrimidine] | < 4.66 | 0 |  | 
2 | CCCc1c(Sc2c(C)cccc2C)[nH]c2nc(N)nc(N)c12 [Compound 12, 2,4-Diamino-5-propyl-6-(2′,6′-dimethylphenylsulfanyl)-7H-pyrrolo[2,3-d] pyrimidine] | < 4.62 | 0 |  | 
3 | CCCc1c(Sc2ccccc2)[nH]c2nc(N)nc(N)c12 [Compound 13, 2,4-Diamino-5-propyl-6-(phenylsulfanyl)-7H-pyrrolo[2,3-d]py-rimidine] | < 4.85 | 0 |  | 
4 | CCCc1c(Sc2ccc(OC)cc2)[nH]c2nc(N)nc(N)c12 [Compound 14, 2,4-Diamino-5-propyl-6-(4′-methoxyphenylsulfanyl)-7H-pyr-rolo[2,3-d]pyrimidine] | < 4.89 | 0 |  | 
5 | CCCc1c(Sc2cc(OC)ccc2OC)[nH]c2nc(N)nc(N)c12 [Compound 15, 2,4-Diamino-5-propyl-6-(2′,5′-dimethoxyphenylsulfanyl)-7H-pyrrolo[2,3-d]pyrimidine] | < 4.92 | 0 |  | 
6 | CCCc1c(Sc2ccc(OC)c(OC)c2)[nH]c2nc(N)nc(N)c12 [Compound 16, 2,4-Diamino-5-propyl-6-(3′,4′-dimethoxyphenylsulfanyl)-7H-pyrrolo[2,3-d]pyrimidine] | < 4.96 | 0 |  | 
7 | CCCc1c(Sc2cccc3ccccc23)[nH]c2nc(N)nc(N)c12 [Compound 17, 2,4-Diamino-5-propyl-6-(1′-napthylsulfanyl)-7H-pyrrolo[2,3-d]pyrimidine] | < 4.92 | 0 |  | 
8 | CCCc1c(Sc2ccc3ccccc3c2)[nH]c2nc(N)nc(N)c12 [Compound 18, 2,4-Diamino-5-propyl-6-(2′-napthylsulfanyl)-7H-pyrrolo[2,3-d]pyrimidine] | < 4.92 | 0 |  | 
9 | CC(C)c1c(Sc2c(Cl)cccc2Cl)[nH]c2nc(N)nc(N)c12 [Compound 19, 2,4-Diamino-5-isopropyl-6-(2′,6′-dichlorophenylsulfanyl)-7H-pyrrolo[2,3-d]pyrimidine] | < 5.66 | 0 |  | 
10 | Cc1cccc(C)c1Sc1[nH]c2nc(N)nc(N)c2c1C(C)C [Compound 20, 2,4-Diamino-5-isopropyl-6-(2′,6′-dimethylphenylsulfanyl)-7H-pyrrolo[2,3-d] pyrimidine] | < 4.89 | 0 |  | 
11 | CC(C)c1c(Sc2ccccc2)[nH]c2nc(N)nc(N)c12 [Compound 21, 2,4-Diamino-5-isopropyl-6-(phenylsulfanyl)-7H-pyrrolo[2,3-d]pyrimidine] | < 5.57 | 0 |  | 
12 | COc1ccc(Sc2[nH]c3nc(N)nc(N)c3c2C(C)C)cc1 [Compound 22, 2,4-Diamino-5-isopropyl-6-(4′-methoxyphenylsulfanyl)-7H-pyrrolo[2,3-d]pyrimidine] | < 5.60 | 0 |  | 
13 | COc1ccc(OC)c(Sc2[nH]c3nc(N)nc(N)c3c2C(C)C)c1 [Compound 23, 2,4-Diamino-5-isopropyl-6-(2′,5′-dimethoxyphenylsulfanyl)-7H-pyrrolo[2,3-d]pyrimidine] | < 5.64 | 0 | among the six least potent compounds | 
14 | COc1ccc(Sc2[nH]c3nc(N)nc(N)c3c2C(C)C)cc1OC [Compound 24, 2,4-Diamino-5-isopropyl-6-(3′,4′-dimethoxyphenylsulfanyl)-7H-pyrrolo[2,3-d]pyrimidine] | < 5.64 | 0 | among the six least potent compounds | 
15 | CC(C)c1c(Sc2cccc3ccccc23)[nH]c2nc(N)nc(N)c12 [Compound 25, 2,4-Diamino-5-isopropyl-6-(1′-napthylsulfanyl)-7H-pyrrolo[2,3-d]pyrimidine] | < 4.92 | 0 |  | 
16 | CC(C)c1c(Sc2ccc3ccccc3c2)[nH]c2nc(N)nc(N)c12 [Compound 26, 2,4-Diamino-5-isopropyl-6-(2′-napthylsulfanyl)-7H-pyrrolo[2,3-d]pyrimidine] | < 5.62 | 0 |  | 
17 | CC(C)c1c(Sc2ccc(Cl)c(Cl)c2)[nH]c2nc(N)nc(N)c12 [Compound 27, 2,4-Diamino-5-isopropyl-6-(3′,4′-dichlorophenylsulfanyl)-7H-pyrrolo[2,3-d]pyrimidine] | < 5.64 | 0 | among the six least potent compounds | 
18 | CN(Cc1cnc2nc(N)nc(N)c2n1)c1ccc(C(=O)N[C@@H](CCC(=O)O)C(=O)O)cc1 [MTX, methotrexate, reference compound] |  |  | three most potent compounds | 7.90
